Results as given in patent publication US9179674B2, “Macrocyclic picolinamide compounds with fungicidal activity” (DOW AGROSCIENCES LLC, priority 2013, dated 2015).

What was measured:
[1] = test system: Glomerella lagenarium; Anamorph: Colletotrichum lagenarium; assay: Cucumber Anthracnose fungicidal activity (COLLLA); type: in vivo; conditions: Colletotrichum orbiculare, 24 h, 1 Day Protectant, read-out: Disease Control COLLLA 1DP
Experimental: Technical grades of materials were dissolved in acetone, which were then mixed with nine volumes of water containing 110 ppm Triton X-100. The fungicide solutions were applied onto wheat seedlings using an automated booth sprayer to run-off. All sprayed plants were allowed to air dry prior to further handling. All fungicides were evaluated using the aforementioned method for their activity vs. all target diseases. Wheat leaf blotch and brown rust activity were also evaluated using track spray applications, in which case the fungicides were formulated as EC formulations, containing 0.1% Trycol 5941 in the spray solutions. Wheat plants (variety Yuma) were grown from seed in a greenhouse in 50% mineral soil/50% soil-less Metro mix until the first leaf was fully emerged, with 7-10 seedlings per pot. These plants were inoculated with an aqueous spore suspension of Septoria tritici either prior to or after fungicide treatments. After inoculation the plants were kept in 100% relative humidity (one day in a dark dew chamber followed by two to three days in a lighted dew chamber at 20° C.) to permit spores to germinate and infect the leaf. The plants were then transferred to a greenhouse set at 20° C. for disease to develop. When disease symptoms were fully expressed on the 1st leaves of untreated plants, infection levels were assessed on a scale of 0 to 100 percent disease severity. Percent disease control was calculated using the ratio of disease severity on treated plants relative to untreated plants. Evaluation of Fungicidal Activity: Cucumber Anthracnose (Glomerella lagenarium; Anamorph: Colletotrichum lagenarium; Bayer Code COLLLA) Cucumber seedlings (variety Bush Pickle) were propagated in soil-less Metro mix, with each pot having one plant, and used in the test when 12 to 14 days old. Test plants were inoculated with an aqueous spore suspension of Colletotrichum lagenarium 24 hr after fungicide treatments. After inoculation the plants were kept in a dew room at 22° C. with 100% relative humidity for 48 hr to permit spores to germinate and infect the leaf. The plants were then transferred to a growth room set at 22° C. for disease to develop. Fungicide formulation, application and disease assessment on the sprayed leaves followed the procedures as described in the Example A.

Phakopsora pachyrhizi = assay: Asian Soybean Rust fungicidal activity (PHAKPA); type: in vivo; conditions: 25 ppm; for Disease Control PHAKPA 1DP: 1 Day Protectant; for Disease Control PHAKPA 3DC: 3 Day Curative
Experimental: Evaluation of Fungicidal Activity: Asian Soybean Rust (Phakopsora pachyrhizi; Bayer Code PHAKPA)
Technical grades of materials were dissolved in acetone, which were then mixed with nine volumes of water containing 0.011% Tween 20. The fungicide solutions were applied onto soybean seedlings using an automated booth sprayer to run-off. All sprayed plants were allowed to air dry prior to further handling.
Soybean plants (variety Williams 82) were grown in soil-less Metro mix, with one plant per pot. Two weeks old seedlings were used for testing. Plants were inoculated either 3 days prior to or 1 day after fungicide treatments. Plants were incubated for 24 h in a dark dew room at 22° C. and 100% RH then transferred to a growth room at 23° C. for disease to develop. Disease severity was assessed on the sprayed leaves.

[2] = test system: Blumeria graminis f.sp. hordei; assay: Barley Powdery Mildew fungicidal activity (ERYSGH); type: in vivo; conditions: 24 h, 1 Day Protectant, read-out: Disease Control ERYSGH 1DP
Experimental: Technical grades of materials were dissolved in acetone, which were then mixed with nine volumes of water containing 110 ppm Triton X-100. The fungicide solutions were applied onto wheat seedlings using an automated booth sprayer to run-off. All sprayed plants were allowed to air dry prior to further handling. All fungicides were evaluated using the aforementioned method for their activity vs. all target diseases. Wheat leaf blotch and brown rust activity were also evaluated using track spray applications, in which case the fungicides were formulated as EC formulations, containing 0.1% Trycol 5941 in the spray solutions. Wheat plants (variety Yuma) were grown from seed in a greenhouse in 50% mineral soil/50% soil-less Metro mix until the first leaf was fully emerged, with 7-10 seedlings per pot. These plants were inoculated with an aqueous spore suspension of Septoria tritici either prior to or after fungicide treatments. After inoculation the plants were kept in 100% relative humidity (one day in a dark dew chamber followed by two to three days in a lighted dew chamber at 20° C.) to permit spores to germinate and infect the leaf. The plants were then transferred to a greenhouse set at 20° C. for disease to develop. When disease symptoms were fully expressed on the 1st leaves of untreated plants, infection levels were assessed on a scale of 0 to 100 percent disease severity. Percent disease control was calculated using the ratio of disease severity on treated plants relative to untreated plants. Evaluation of Fungicidal Activity: Barley Powdery Mildew (Blumeria graminis fsp. hordei; Synonym: Erysiphe graminis fsp. hordei; Bayer Code […]) Barley seedlings (variety Harrington) were propagated in soil-less Metro mix, with each pot having 8 to 12 plants, and used in the test when first leaf was fully emerged. Test plants were inoculated by dusting with infected stock plants 24 hr after fungicide treatments. After inoculation the plants were kept in a greenhouse set at 20° C. for disease to develop. Fungicide formulation, application and disease assessment on the sprayed leaves followed the procedures as described in the Example A.

[3] = test system: Blumeria graminis f. sp. tritici; assay: Wheat Powdery Mildew fungicidal activity (ERYSGT); type: in vivo; conditions: 100 ppm, 1 Day Protectant
Experimental: Technical grades of materials were dissolved in acetone, which were then mixed with nine volumes of water containing 110 ppm Triton X-100. The fungicide solutions were applied onto wheat seedlings using an automated booth sprayer to run-off. All sprayed plants were allowed to air dry prior to further handling. All fungicides were evaluated using the aforementioned method for their activity vs. all target diseases. Wheat leaf blotch and brown rust activity were also evaluated using track spray applications, in which case the fungicides were formulated as EC formulations, containing 0.1% Trycol 5941 in the spray solutions. Wheat plants (variety Yuma) were grown from seed in a greenhouse in 50% mineral soil/50% soil-less Metro mix until the first leaf was fully emerged, with 7-10 seedlings per pot. These plants were inoculated with an aqueous spore suspension of Septoria tritici either prior to or after fungicide treatments. After inoculation the plants were kept in 100% relative humidity (one day in a dark dew chamber followed by two to three days in a lighted dew chamber at 20° C.) to permit spores to germinate and infect the leaf. The plants were then transferred to a greenhouse set at 20° C. for disease to develop. When disease symptoms were fully expressed on the 1st leaves of untreated plants, infection levels were assessed on a scale of 0 to 100 percent disease severity. Percent disease control was calculated using the ratio of disease severity on treated plants relative to untreated plants. Evaluation of Fungicidal Activity: Wheat Powdery Mildew (Blumeria graminis f. sp. tritici; Synonym: Erysiphe graminis f. sp. tritici; Bayer Code […]) Wheat plants (variety Yuma) were grown from seed in a greenhouse in 50% mineral soil/50% soil-less Metro mix until the first leaf was fully emerged, with 7-10 seedlings per pot. These plants were inoculated by dusting with infected stock plants 24 hr after fungicide treatments. After inoculation the plants were kept in a greenhouse set at 20° C. for disease to develop. […]

SMILES | pest or weed control at 100 ppm [1] | melting point | Disease Control PHAKPA 1DP (Phakopsora pachyrhizi) | Disease Control PHAKPA 3DC (Phakopsora pachyrhizi) | pest or weed control at 100 ppm [2] | Disease Control ERYSGT 1DP [3]
COc1ccnc(C(=O)N[C@H]2COC[C@H](Cc3ccc(Cl)cc3Cl)[C@@H](OC(=O)C(C)C)[C@H](C)OC2=O)c1OCOC(C)=O [Compound F110] | 80 to 100% | 62 to 66 °C | – | – | – | –
COc1ccnc(C(=O)N[C@H]2COC[C@H](CC3CCCC3)[C@@H](OC(=O)C(C)C)[C@H](C)OC2=O)c1OCOC(C)=O [Compound F114] | 80 to 100% | 41 to 45 °C | A (80-100) | B (More than 0-Less than 80) | 80 to 100% | –
COc1ccnc(C(=O)N[C@H]2COC[C@H](CC(F)(F)F)[C@@H](OC3CCCC3)[C@H](C)OC2=O)c1OCOC(C)=O [Compound F105] | 80 to 100% | – | – | – | – | –
COc1ccnc(C(=O)N[C@H]2COC[C@H](CCC(C)C)[C@@H](OCCCC(F)(F)F)[C@H](C)OC2=O)c1OCOC(C)=O [Compound F107] | – | – | A (80-100) | B (More than 0-Less than 80) | 0 to 80% | –
CCCCCO[C@@H]1[C@@H](Cc2ccc(Cl)cc2Cl)COC[C@H](NC(=O)c2nccc(OC)c2OCOC(=O)COCC)C(=O)O[C@H]1C [Compound F122] | 80 to 100% | – | B (More than 0-Less than 80) | – | 80 to 100% | –
COc1ccnc(C(=O)N[C@H]2COC[C@H](Cc3ccc(C)cc3)[C@@H](OCC(C)C)[C@H](C)OC2=O)c1OC(C)=O [Compound F80] | 80 to 100% | – | – | – | 80 to 100% | A (80-100)
COc1ccnc(C(=O)N[C@H]2COC[C@H](Cc3ccc(F)cc3)[C@@H](OCC(C)C)[C@H](C)OC2=O)c1OCOC(C)=O [Compound F96] | 80 to 100% | – | – | – | 80 to 100% | A (80-100)
COc1ccnc(C(=O)N[C@H]2COC[C@H](Cc3ccc(Cl)cc3Cl)[C@@H](OC(=O)C(C)C)[C@H](C)OC2=O)c1OC(C)=O [Compound F73] | 80 to 100% | 93 to 97 °C | – | – | – | –
COc1ccnc(C(=O)N[C@H]2COC[C@H](CCC(C)C)[C@@H](OC(=O)C3CC3)[C@H](C)OC2=O)c1OCOC(C)=O [Compound F108] | – | – | A (80-100) | A (80-100) | 80 to 100% | –
COc1ccnc(C(=O)N[C@H]2COC[C@H](Cc3ccc(C)cc3)[C@@H](OCC(C)C)[C@H](C)OC2=O)c1OCOC(C)=O [Compound F117] | 80 to 100% | – | – | – | 80 to 100% | A (80-100)
COc1ccnc(C(=O)N[C@H]2COC[C@H](Cc3cccc4ccccc34)[C@@H](OC(=O)C(C)C)[C@H](C)OC2=O)c1OCOC(C)=O [Compound F83, (3S,6S,7R,8S)-3-(3-(acetoxymethoxy)-4-methoxypicolin-amido)-6-methyl-8-(naphthalen-1-ylmethyl)-4-oxo-1,5-dioxonan-7-yl isobutyrate] | 80 to 100% | 58 to 64 °C | – | – | 80 to 100% | –
COc1ccnc(C(=O)N[C@H]2COC[C@H](CCc3ccccc3)[C@@H](OCC(C)C)[C@H](C)OC2=O)c1OCOC(C)=O [Compound F82] | 80 to 100% | – | – | – | – | –
CCCCCO[C@@H]1[C@@H](Cc2ccc(Cl)cc2Cl)COC[C@H](NC(=O)c2nccc(OC)c2OC(=O)CCOC)C(=O)O[C@H]1C [Compound F123] | 80 to 100% | 96 to 99 °C | B (More than 0-Less than 80) | – | 80 to 100% | –
